Reference: ChEMBL document CHEMBL1140806, “Optimization of the heterocyclic core of the quinazolinone-derived CXCR3 antagonists” (Bioorg Med Chem Lett, 2008)

Key:
[1] = target: T1, C-X-C chemokine receptor type 3 (Homo sapiens, UniProt P49682); assay: Displacement of [125I]IP-10 from CXCR3 receptor expressed in human PBMC in EDTA-anti-coagulated human plasma
T1 sequence (P49682 whole entry): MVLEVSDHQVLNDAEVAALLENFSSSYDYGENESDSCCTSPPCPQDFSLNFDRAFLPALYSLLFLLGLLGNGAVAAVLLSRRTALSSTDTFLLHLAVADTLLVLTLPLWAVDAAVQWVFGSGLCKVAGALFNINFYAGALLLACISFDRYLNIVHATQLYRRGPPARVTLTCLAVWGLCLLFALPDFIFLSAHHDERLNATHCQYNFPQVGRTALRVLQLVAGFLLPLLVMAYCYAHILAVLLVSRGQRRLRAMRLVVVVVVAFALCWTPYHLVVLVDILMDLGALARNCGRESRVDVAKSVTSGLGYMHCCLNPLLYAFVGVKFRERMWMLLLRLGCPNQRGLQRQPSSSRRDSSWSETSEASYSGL

[2] = Mean residence time in rat at 0.5 mg/kg, iv; format: ADME, organism-based; set-up: dose 0.5 mg/kg, route intravenous; conditions: in vivo
[3] = Clearance in rat at 0.5 mg/kg, iv; format: ADME, organism-based; set-up: dose 0.5 mg/kg, route intravenous; conditions: in vivo
[4] = target: T1, C-X-C chemokine receptor type 3; assay: Displacement of [125I]IP-10 from CXCR3 receptor expressed in human PBMC in RPMI-1640 buffer supplemented with 0.5% BSA
[5] = Oral bioavailability in rat at 2 mg/kg; format: ADME, organism-based; conditions: in vivo

Compound	IC50 [1]	MRT [2]	clearance [3]	IC50 [4]	bioavailability [5]	Ki [4]
CCS(=O)(=O)CCN(C(=O)Cc1ccc(F)c(C(F)(F)F)c1)[C@H](C)c1nc2ncccc2cc1-c1ccc(C#N)cc1	0.027 µM	22.2 min	2.38 L/h/kg	0.002 µM	31%	–
CCS(=O)(=O)CCN(C(=O)Cc1ccc(F)c(C(F)(F)F)c1)[C@H](C)c1nc2ncccc2c(=O)n1-c1ccc(C#N)cc1	–	31.8 min	2.38 L/h/kg	–	47%	–
CCS(=O)(=O)CCN(C(=O)Cc1ccc(F)c(C(F)(F)F)c1)[C@H](C)c1nc2ccccc2cc1-c1ccc(C#N)cc1	0.021 µM	90 min	2.53 L/h/kg	0.0008 µM	17%	–
CCS(=O)(=O)CCN(C(=O)Cc1ccc(F)c(C(F)(F)F)c1)[C@H](C)c1nn2ccccc2c1-c1ccc(C#N)cc1	0.523 µM	–	–	0.018 µM	–	–
CCS(=O)(=O)CCN(C(=O)Cc1ccc(F)c(C(F)(F)F)c1)[C@H](C)c1nc2ccccn2c1-c1ccc(C#N)cc1	0.021 µM	15.6 min	2.18 L/h/kg	–	24%	0.003 µM
CCS(=O)(=O)CCN(C(=O)Cc1ccc(F)c(C(F)(F)F)c1)[C@H](C)c1nc2ccccc2n1-c1ccc(C#N)cc1	0.035 µM	–	–	0.006 µM	–	–
CCS(=O)(=O)CCN(C(=O)Cc1ccc(F)c(C(F)(F)F)c1)[C@H](C)c1nc2ncccn2c1-c1ccc(C#N)cc1	0.079 µM	–	–	–	–	–

Second part, the compound after the results:

IC50 [1]	MRT [2]	clearance [3]	IC50 [4]	bioavailability [5]	Ki [4]	Compound
0.06 µM	21 min	3.78 L/h/kg	0.004 µM	–	–	CCS(=O)(=O)CCN(C(=O)Cc1ccc(F)c(C(F)(F)F)c1)[C@H](C)c1nc2c(c(=O)n1-c1ccc(C#N)cc1)CCCN2C
0.121 µM	–	–	0.009 µM	–	–	CCS(=O)(=O)CCN(C(=O)Cc1ccc(F)c(C(F)(F)F)c1)[C@H](C)c1nc2ccccc2nc1-c1ccc(C#N)cc1
0.115 µM	–	–	0.005 µM	–	–	CCS(=O)(=O)CCN(C(=O)Cc1ccc(F)c(C(F)(F)F)c1)[C@H](C)c1cc2ccccc2nc1-c1ccc(C#N)cc1
–	84 min	0.24 L/h/kg	–	24%	–	CCS(=O)(=O)CCN(C(=O)Cc1ccc(F)c(C(F)(F)F)c1)[C@H](C)c1nc2ccccn2c(=O)c1-c1ccc(C#N)cc1
